Data: ChEMBL document CHEMBL1201862, “PubChem BioAssay data set” (2004)
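Method: 48-hour compound exposure of cells in 96-well plates, five concentrations, linear interpolation of endpoints. GI50: concentration for 50% inhibition of growth.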 Calls of active or inactive are those of the source. No stated cut-off is given here; in the data, active = GI50 up to about 1.1 µM and inactive = higher.

Experiments:
Assay in all cases: NCI anticancer screen, dose series, 48 h
RPMI-8226 = system: RPMI-8226
NCI-H23 = system: NCI-H23
UACC-62 = system: UACC-62
SF-268 = system: SF-268
IGROV-1 = system: IGROV-1
NCI-H226 = system: NCI-H226
HT-29 = system: HT-29
T47D = system: T47D
A549 = system: A549
PC-3 = system: PC-3
UACC-257 = system: UACC-257
HCT-116 = system: HCT-116
NCI-H460 = system: NCI-H460
MDA-MB-435 = system: MDA-MB-435
HCT-15 = system: HCT-15
TK-10 = system: TK-10
U-251 = system: U-251
NCI/ADR-RES = system: NCI/ADR-RES
SK-OV-3 = system: SK-OV-3
HCC 2998 = system: HCC 2998

Row | SMILES | GI50 (RPMI-8226) | GI50 (NCI-H23) | GI50 (UACC-62) | GI50 (SF-268) | GI50 (IGROV-1) | GI50 (NCI-H226) | GI50 (HT-29) | GI50 (T47D) | GI50 (A549) | GI50 (PC-3) | GI50 (UACC-257) | GI50 (HCT-116) | GI50 (NCI-H460) | GI50 (MDA-MB-435) | GI50 (HCT-15) | GI50 (TK-10) | GI50 (U-251) | GI50 (NCI/ADR-RES) | GI50 (SK-OV-3) | GI50 (HCC 2998)
1 | OC(Cc1ccccc1)(Cc1ccccc1)c1ccccc1 | 29.3 µM (inactive) | 18.8 µM (inactive) | 16.9 µM (inactive) | 14.9 µM (inactive) | 16.3 µM (inactive) | 18.4 µM (inactive) | 15.9 µM (inactive) | 33.7 µM (inactive) | 19.5 µM (inactive) | 18.7 µM (inactive) | 18.5 µM (inactive) | 16.2 µM (inactive) | 19.4 µM (inactive) | 17.5 µM (inactive) | 20.5 µM | 19.8 µM (inactive) | 18.1 µM (inactive) | 23 µM (inactive) |  | 
2 | NS(=O)(=O)c1cc(Br)c(/N=N\c2ccc(O)c3ncccc23)c(Br)c1 | 7.26 µM (inactive) | 17.9 µM (inactive) | 21.8 µM (inactive) | 15.9 µM (inactive) | 11 µM (inactive) | 45 µM (inactive) | > 100 µM (inactive) | 39 µM (inactive) | 18.5 µM (inactive) | 29.8 µM (inactive) | 19.6 µM (inactive) | 26.7 µM (inactive) | 25.3 µM (inactive) | 29.2 µM (inactive) | 4.27 µM | 22.3 µM (inactive) | 19.1 µM (inactive) | 13.2 µM (inactive) | 47.8 µM (inactive) | 
3 | COc1ccc2c(c1)CC[C@@H]1[C@@H]2CC[C@]2(C)/C(=N/OCCN3CCCC3)CC[C@@H]12 | 1.5 µM (inactive) | 5.94 µM (inactive) | 1.82 µM (inactive) | 4.07 µM (inactive) | 4.51 µM (inactive) | 1.95 µM (inactive) | 0.766 µM (active) | 3.21 µM (inactive) | 2.78 µM (inactive) | 3.85 µM (inactive) | 1.75 µM (inactive) | 1.78 µM (inactive) | 1.5 µM (inactive) | 0.91 µM (active) | 1.25 µM | 6.47 µM (inactive) | 3.46 µM (inactive) | 8.61 µM (inactive) |  | 1.85 µM (inactive)
4 | CCOC(=O)c1c(SC(=O)c2cc(OC)c(OC)c(OC)c2)n(-c2ccccc2)c(=S)n(-c2ccccc2)c1=O |  | > 100 µM (inactive) | > 100 µM (inactive) | > 100 µM (inactive) | > 100 µM (inactive) | > 100 µM (inactive) | > 100 µM (inactive) | > 100 µM (inactive) | > 100 µM (inactive) | > 100 µM (inactive) | > 100 µM (inactive) | > 100 µM (inactive) | > 100 µM (inactive) | > 100 µM (inactive) | > 100 µM | > 100 µM (inactive) | > 100 µM (inactive) | > 100 µM (inactive) | > 100 µM (inactive) | > 100 µM (inactive)
5 | O=S1(=O)OCCCOS(=O)(=O)C1Br | > 100 µM (inactive) | > 100 µM (inactive) | > 100 µM (inactive) | > 100 µM (inactive) |  | > 100 µM (inactive) | > 100 µM (inactive) | > 100 µM (inactive) | > 100 µM (inactive) | > 100 µM (inactive) | > 100 µM (inactive) | > 100 µM (inactive) |  | > 100 µM (inactive) | > 100 µM | > 100 µM (inactive) | > 100 µM (inactive) | > 100 µM (inactive) | > 100 µM (inactive) | > 100 µM (inactive)
6 | Cn1/c(=N\N=C2\C=C3CCCCC3(C)CC2)sc2ccccc21 (stereo not given) |  | > 100 µM (inactive) | > 100 µM (inactive) | > 100 µM (inactive) | > 100 µM (inactive) | > 100 µM (inactive) | > 100 µM (inactive) | > 100 µM (inactive) | > 100 µM (inactive) | > 100 µM (inactive) | > 100 µM (inactive) | > 100 µM (inactive) | > 100 µM (inactive) | > 100 µM (inactive) | > 100 µM | > 100 µM (inactive) | > 100 µM (inactive) | > 100 µM (inactive) | > 100 µM (inactive) | > 100 µM (inactive)
7 | N#Cc1ccc(Oc2nc3ccc(C(F)(F)F)cc3nc2-c2ccccc2)cc1 |  | 16.5 µM (inactive) | 32.6 µM (inactive) | 24.9 µM (inactive) | 18.8 µM (inactive) |  | 16.7 µM (inactive) | 16.7 µM (inactive) | 16.7 µM (inactive) | 14 µM (inactive) | 21.8 µM (inactive) | 15.3 µM (inactive) | 17.6 µM (inactive) | 17.7 µM (inactive) | 14.9 µM | 19.5 µM (inactive) | 17.2 µM (inactive) | 16.9 µM (inactive) | 12.5 µM (inactive) | 17 µM (inactive)
8 | CC(=O)O[C@H]1CC[C@@]2(C)C(=CC[C@@H]3[C@@H]2CC[C@]2(C)c4c(C)n[nH]c4C[C@@H]32)C1 |  | 14.1 µM (inactive) | 12 µM (inactive) | 23.4 µM (inactive) | 20.8 µM (inactive) | 16.5 µM (inactive) | 10.3 µM (inactive) | 9.53 µM (inactive) | 14.2 µM (inactive) | 17.3 µM (inactive) | 16.7 µM (inactive) | 11.2 µM (inactive) | 15.6 µM (inactive) | 16 µM (inactive) | 15 µM | 19.2 µM (inactive) | 15.3 µM (inactive) | 26.1 µM (inactive) | 26.9 µM (inactive) | 18.5 µM (inactive)
9 | COc1cc2c(cc1C1COc3cc4occc4cc3C1=O)OCO2 (stereo not given) | 2.67 µM (inactive) | > 100 µM (inactive) | > 100 µM (inactive) | 55.1 µM (inactive) | 63 µM (inactive) | 25.7 µM (inactive) | 41.2 µM (inactive) | > 100 µM (inactive) | 7.11 µM (inactive) | > 100 µM (inactive) | > 100 µM (inactive) | > 100 µM (inactive) |  | > 100 µM (inactive) | 35.9 µM | 29.4 µM (inactive) | 76 µM (inactive) | 17.1 µM (inactive) | 34.4 µM (inactive) | 98.6 µM (inactive)
10 | COc1cc(NP(=O)(Oc2ccccc2)Oc2ccccc2)ccc1Nc1c2ccccc2nc2c1[nH]c1ccccc12 |  | 0.585 µM (active) | 2.4 µM (inactive) | 6.52 µM (inactive) | 0.0923 µM (active) |  | 0.953 µM (active) | 0.867 µM (active) | 0.16 µM (active) | 4.41 µM (inactive) | 7.71 µM (inactive) | 3.21 µM (inactive) | 0.0226 µM (active) | 3.11 µM (inactive) | 1.63 µM | 3.01 µM (inactive) | 0.524 µM (active) | 1.65 µM (inactive) | 1.88 µM (inactive) | 4.36 µM (inactive)
11 | Cc1nc(-c2cc3c(ccc4ccccc43)oc2=O)cc2c1c(=O)oc1ccc3ccccc3c12 |  | > 100 µM (inactive) | > 100 µM (inactive) | > 100 µM (inactive) | > 100 µM (inactive) |  | > 100 µM (inactive) | > 100 µM (inactive) | > 100 µM (inactive) | > 100 µM (inactive) | > 100 µM (inactive) | > 100 µM (inactive) | > 100 µM (inactive) | > 100 µM (inactive) | > 100 µM | > 100 µM (inactive) | > 100 µM (inactive) | > 100 µM (inactive) | > 100 µM (inactive) | > 100 µM (inactive)
12 | COC(=O)C1=NN2c3ccccc3CN([C@@H](C)c3ccccc3)C(=O)[C@H]2[C@@H]1C |  | 33.1 µM (inactive) | 40.6 µM (inactive) | 40.3 µM (inactive) |  | 25.9 µM (inactive) | 31.8 µM (inactive) | 17 µM (inactive) | 29.4 µM (inactive) | 23.8 µM (inactive) | 26.9 µM (inactive) | 33.7 µM (inactive) | 38.1 µM (inactive) | 32.1 µM (inactive) | 43.9 µM | 50.1 µM (inactive) | 42 µM (inactive) | 26.1 µM (inactive) | 62.5 µM (inactive) | 24.7 µM (inactive)
13 | CC(=O)N1C(OC(C)C)CC(C)N1c1ccccc1 (stereo not given) | > 10 µM (inactive) | > 10 µM (inactive) |  | > 10 µM (inactive) | > 10 µM (inactive) | > 10 µM (inactive) | > 10 µM (inactive) | > 10 µM (inactive) | > 10 µM (inactive) | > 10 µM (inactive) | > 10 µM (inactive) | > 10 µM (inactive) | > 10 µM (inactive) | > 10 µM (inactive) | > 10 µM | > 10 µM (inactive) |  | > 10 µM (inactive) |  | > 10 µM (inactive)
14 | COc1ccc(N/N=C/C2=CC(C)(C)C(C#N)(C#N)C(O)=C2C#N)cc1 | 35.6 µM (inactive) | 35.9 µM (inactive) | 62.2 µM (inactive) | 41 µM (inactive) | 46.9 µM (inactive) | 77.8 µM (inactive) | 43.1 µM (inactive) | 35.6 µM (inactive) | 25.6 µM (inactive) | 27.8 µM (inactive) | 25 µM (inactive) | 39 µM (inactive) | 20.9 µM (inactive) | 65.3 µM (inactive) | 14.1 µM | > 100 µM (inactive) | 45.1 µM (inactive) | 37 µM (inactive) |  | 
15 | O=C1O/C(=C\C=C\CO)C=C1/C=C/CO [LISSOCLINOLIDE] | 16.4 µM (inactive) | 18.5 µM (inactive) | 18.9 µM (inactive) | 24.5 µM (inactive) | 16 µM (inactive) | 36.5 µM (inactive) | 23 µM (inactive) | 20.7 µM (inactive) | 36.4 µM (inactive) | 14.3 µM (inactive) |  | 14 µM (inactive) | 32.1 µM (inactive) | 35.7 µM (inactive) | 12.3 µM | 19.1 µM (inactive) | 40.8 µM (inactive) | 33.3 µM (inactive) | 61.2 µM (inactive) | 
